Assay results reported in patent publication US20230271950A1, “ANTIBACTERIAL PICOLINAMIDE COMPOUNDS” (University of Notre Dame Du Lac, priority 2020, published 2023).
In brackets after ≈: the same amount, converted by molar mass. Read-outs that look alike come from different tables or passages of the source.

How the values were obtained:
[1] = system: Lactobacillus reuteri; assay: MIC against gut bacterium Lactobacillus reuteri; type: cell-based
[2] = system: Bacteroides fragilis; assay: MIC against gut bacterium Bacteroides fragilis; type: cell-based; conditions: Bacteroides fragilis, Bacteroides fragilis strain HM-709, read-out: MIC
[3] = system: Corynebacterium spp.; assay: MIC against gut bacterium Corynebacterium spp.; type: cell-based; conditions: Corynebacterium, Corynebacterium spp. strain HM-784
[4] = system: Lactobacillus gasseri; assay: MIC against gut bacterium Lactobacillus gasseri; type: cell-based
[5] = system: E. faecium NCTC7171; assay: MIC against E. faecium; type: cell-based, Enterococcus faecium; conditions: Enterococcus faecium; E. faecium NCTC7171; Table 1; read-out: MIC
[6] = system: Eubacterium sp.; assay: MIC against gut bacterium Eubacterium sp.; type: cell-based; conditions: Eubacterium, Eubacterium sp. strain HM-178, read-out: MIC
[7] = system: MRSA (NRS70, NRS119); assay: MIC against MRSA strains; type: cell-based, Staphylococcus aureus; conditions: Staphylococcus aureus, read-out: MIC
[8] = system: S. aureus ATCC29213; assay: MIC against MSSA; type: cell-based, Staphylococcus aureus; conditions: Staphylococcus aureus; S. aureus ATCC29213; Table 1; read-out: MIC
[9] = system: C. difficile; assay: MIC by broth microdilution against C. difficile strains; type: cell-based, Clostridioides difficile

SMILES: CCc1c(Cl)c(O)c(Cl)c(O)c1C(=O)O[C@H]1[C@H](O)[C@H](OC)[C@H](OC/C2=C\C=C\C[C@H](O)/C(C)=C/[C@H](CC)[C@@H](O[C@@H]3OC(C)(C)[C@@H](OC(=O)C(C)C)[C@H](O)[C@@H]3O)/C(C)=C/C(C)=C/C[C@@H]([C@@H](C)O)OC2=O)O[C@@H]1C [FDX, fidaxomicin, reference compound]
- MIC ([1]; Lactobacillus reuteri strain HM-102, Table 7): >32 µg/mL
- MIC ([1]; Limosilactobacillus reuteri, Lactobacillus reuter strain HM-102, Table 1, read-out: MIC): > 32 µg/mL
- MIC ([2]; Table 1): > 32 µg/mL
- MIC ([2]; Table 7): > 32 µg/mL
- MIC ([3]; Table 1): < 0.06 µg/mL
- MIC ([3]; Table 7): < 0.0625 µg/mL
- MIC ([4]; Lactobacillus gasseri strain HM-644, Table 7): 2 µg/mL (≈ 1.89 µM)
- MIC ([4]; Lactobacillus gasseri, Lactobacillus gasser strain HM-644, Table 1, read-out: MIC): 2 µg/mL (≈ 1.89 µM)
- MIC [5]: 2 µg/mL (≈ 1.89 µM)
- MIC ([6]; Table 1): 16 µg/mL (≈ 15.1 µM)
- MIC ([6]; Table 7): 16 µg/mL (≈ 15.1 µM)
- MIC ([7]; MRSA NRS70, Table 1): 8 µg/mL (≈ 7.56 µM)
- MIC ([7]; MRSA NRS70, Table 7): 8 µg/mL (≈ 7.56 µM)
- MIC ([7]; MRSA NRS119, Table 1): 2 µg/mL (≈ 1.89 µM)
- MIC [8]: 8 µg/mL (≈ 7.56 µM)
- selectivity toward C. difficile relative to MRSA ([9]; C. difficile ATCC43255 relative to MRSA NRS70): 128 fold
- MIC ([9]; C. difficile BAA-1801, Table 9): 0.125 µg/mL (≈ 0.118 µM)
- MIC ([9]; C. difficile HM-745, Table 9): 0.125 µg/mL (≈ 0.118 µM)
- MIC ([9]; C. difficile NR49318, Table 9): 0.125 µg/mL (≈ 0.118 µM)
- MIC ([9]; C. difficile NR-13431, Table 9): 0.125 µg/mL (≈ 0.118 µM)
- MIC ([9]; C. difficile NR-13433, Table 9): 0.125 µg/mL (≈ 0.118 µM)
- MIC ([9]; C. difficile NR-13436, Table 9): 0.125 µg/mL (≈ 0.118 µM)
- MIC ([9]; C. difficile NR-32883, Table 9): 0.125 µg/mL (≈ 0.118 µM)
- MIC ([9]; C. difficile NR-32887, Table 9): 0.125 µg/mL (≈ 0.118 µM)
- MIC ([9]; C. difficile NR-49280, Table 9): 0.125 µg/mL (≈ 0.118 µM)
- MIC ([9]; C. difficile NR-49298, Table 9): 0.125 µg/mL (≈ 0.118 µM)
- MIC ([9]; C. difficile NR-49299, Table 9): 0.125 µg/mL (≈ 0.118 µM)
- MIC ([9]; C. difficile NR-49308, Table 9): 0.125 µg/mL (≈ 0.118 µM)
- MIC ([9]; C. difficile NR-49312, Table 9): 0.125 µg/mL (≈ 0.118 µM)
- MIC ([9]; C. difficile NR-49316, Table 9): 0.125 µg/mL (≈ 0.118 µM)
- MIC ([9]; C. difficile NR-49319, Table 9): 0.125 µg/mL (≈ 0.118 µM)
- MIC ([9]; C. difficile NR-49320, Table 9): 0.125 µg/mL (≈ 0.118 µM)
- MIC ([9]; C. difficile NR-49321, Table 9): 0.125 µg/mL (≈ 0.118 µM)
- MIC ([9]; Clostridioides difficile): 0.125 µg/mL (≈ 0.118 µM)
- MIC ([9]; Clostridioides difficile, ATCC43255, C. difficile ATCC43255 (TcdA+, TcdB+), Table 1, read-out: MIC): 0.06 µg/mL (≈ 0.0567 µM)
- MIC ([9]; Clostridioides difficile, ATCC43255, C. difficile ATCC43255, Table 7, read-out: MIC): 0.0625 µg/mL (≈ 0.0591 µM)
- MIC ([9]; Clostridioides difficile, ATCC43255, C. difficile ATCC43255, Table 9, read-out: MIC): 0.06 µg/mL (≈ 0.0567 µM)
- MIC ([9]; Clostridioides difficile, ATCC43598, C. difficile ATCC43598, Table 7, read-out: MIC): 0.01 µg/mL (≈ 0.00945 µM)
- MIC ([9]; Clostridioides difficile, ATCC43598, C. difficile ATCC43598, Table 9, read-out: MIC): 0.01 µg/mL (≈ 0.00945 µM)
- MIC ([9]; Clostridioides difficile, BAA1801): 0.125 µg/mL (≈ 0.118 µM)
- MIC ([9]; Clostridioides difficile, BAA1803, C. difficile BAA-1803, Table 7, read-out: MIC): 1 µg/mL (≈ 0.945 µM)
- MIC ([9]; Clostridioides difficile, BAA1803, C. difficile BAA-1803, Table 9, read-out: MIC): 1 µg/mL (≈ 0.945 µM)
- MIC ([9]; Clostridioides difficile, BAA1804): 0.125 µg/mL (≈ 0.118 µM)
- MIC ([9]; Clostridioides difficile, BAA1804, C. difficile BAA-1804, Table 7, read-out: MIC): < 0.25 µg/mL
- MIC ([9]; Clostridioides difficile, BAA1812, C. difficile BAA-1812, Table 7, read-out: MIC): 0.015 µg/mL (≈ 0.0142 µM)
- MIC ([9]; Clostridioides difficile, BAA1812, C. difficile BAA-1812, Table 9, read-out: MIC): 0.015 µg/mL (≈ 0.0142 µM)
- MIC ([9]; Clostridioides difficile, BAA1814, C. difficile BAA-1814, Table 7, read-out: MIC): 0.03 µg/mL (≈ 0.0284 µM)
- MIC ([9]; Clostridioides difficile, BAA1814, C. difficile BAA-1814, Table 9, read-out: MIC): 0.03 µg/mL (≈ 0.0284 µM)
- MIC ([9]; Clostridioides difficile, BAA1870, C. difficile BAA-1870 (NAP1, ribotype 27), Table 1, read-out: MIC): 0.25 µg/mL (≈ 0.236 µM)
- MIC ([9]; Clostridioides difficile, BAA1870, C. difficile BAA-1870, Table 7, read-out: MIC): 0.25 µg/mL (≈ 0.236 µM)
- MIC ([9]; Clostridioides difficile, BAA1870, C. difficile BAA-1870, Table 9, read-out: MIC): 0.25 µg/mL (≈ 0.236 µM)
- MIC ([9]; Clostridioides difficile, C. difficile 23691 (VR, vancomycin-resistant), Table 7, read-out: MIC): 4 µg/mL (≈ 3.78 µM)
- MIC ([9]; Clostridioides difficile, C. difficile 23691, clinical isolate resistant to VAN, Table 1, read-out: MIC): 4 µg/mL (≈ 3.78 µM)
- MIC ([9]; Clostridioides difficile, C. difficile 23691, Table 9, read-out: MIC): 4 µg/mL (≈ 3.78 µM)
- MIC ([9]; Clostridioides difficile, C. difficile 23828 (FR, fidaxomicin-resistant), Table 7, read-out: MIC): > 8 µg/mL
- MIC ([9]; Clostridioides difficile, C. difficile 23828, clinical isolate resistant to FDX, Table 1, read-out: MIC): > 8 µg/mL
- MIC ([9]; Clostridioides difficile, C. difficile 23828, Table 9, read-out: MIC): > 8 µg/mL
- MIC ([9]; Clostridioides difficile, C. difficile 24531 (VR, vancomycin-resistant), Table 7, read-out: MIC): 0.01 µg/mL (≈ 0.00945 µM)
- MIC ([9]; Clostridioides difficile, C. difficile 24531, Table 9, read-out: MIC): 0.01 µg/mL (≈ 0.00945 µM)
- MIC ([9]; Clostridioides difficile, C. difficile 24923 (VR, vancomycin-resistant), Table 7, read-out: MIC): 0.0625 µg/mL (≈ 0.0591 µM)
- MIC ([9]; Clostridioides difficile, C. difficile 24923, Table 9, read-out: MIC): 0.06 µg/mL (≈ 0.0567 µM)
- MIC ([9]; Clostridioides difficile, C. difficile 26675 (MR, metronidazole-resistant), Table 7, read-out: MIC): 4 µg/mL (≈ 3.78 µM)
- MIC ([9]; Clostridioides difficile, C. difficile 26675, clinical isolate resistant to MTZ, Table 1, read-out: MIC): 4 µg/mL (≈ 3.78 µM)
- MIC ([9]; Clostridioides difficile, C. difficile 26675, Table 9, read-out: MIC): 4 µg/mL (≈ 3.78 µM)
- MIC ([9]; Clostridioides difficile, C. difficile 27081 (FR, fidaxomicin-resistant), Table 7, read-out: MIC): > 8 µg/mL
- MIC ([9]; Clostridioides difficile, C. difficile 27081, Table 9, read-out: MIC): > 8 µg/mL
- MIC ([9]; Clostridioides difficile, C. difficile 27173 (MR, metronidazole-resistant), Table 7, read-out: MIC): 0.01 µg/mL (≈ 0.00945 µM)
- MIC ([9]; Clostridioides difficile, C. difficile 27173, Table 9, read-out: MIC): 0.01 µg/mL (≈ 0.00945 µM)
- MIC ([9]; Clostridioides difficile, C. difficile HM-88, Table 9, read-out: MIC): 0.03 µg/mL (≈ 0.0284 µM)
- MIC ([9]; Clostridioides difficile, C. difficile HM-89, Table 9, read-out: MIC): 0.03 µg/mL (≈ 0.0284 µM)
- MIC ([9]; Clostridioides difficile, C. difficile HM-746, Table 9, read-out: MIC): ≤ 0.03 µg/mL
- MIC ([9]; Clostridioides difficile, C. difficile HM-747, Table 9, read-out: MIC): 0.06 µg/mL (≈ 0.0567 µM)
- MIC ([9]; Clostridioides difficile, C. difficile NR49292, Table 7, read-out: MIC): 0.5 µg/mL (≈ 0.473 µM)
- MIC ([9]; Clostridioides difficile, C. difficile NR49292, Table 9, read-out: MIC): 0.5 µg/mL (≈ 0.473 µM)
- MIC ([9]; Clostridioides difficile, C. difficile NR49294, Table 7, read-out: MIC): 0.01 µg/mL (≈ 0.00945 µM)
- MIC ([9]; Clostridioides difficile, C. difficile NR49294, Table 9, read-out: MIC): 0.01 µg/mL (≈ 0.00945 µM)
